Measurements taken from the supplement of paper PMC10307832.

Tests used:
Experiment in all cases: relative viability (nuclei count vs DMSO), 5 days (fraction); higher = more cells survive
[1] = compound: C1=CC2=NC=CN=C2C=C1/C=C/3\C(=O)NC(=O)S3 + C[C@]1(O)C[C@@H](c2nc(-c3ccc4ccc(-c5ccccc5)nc4c3)c3c(N)nccn32)C1 [Linsitinib] (partner 1 µM)
Procedure, shortened: (§1)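 For relative viability, nuclei counts in treated wells were divided by those in vehicle wells. Lung cancer cell lines had been pin-tool dosed in 1536-well plates the day after seeding and cultured for 5 days, then fixed and stained in one step (final 0.05% Triton X-100, 1% formaldehyde, 1 ug/ml Hoechst) and imaged at 4×. Doses were one drug alone or a fixed anchor-drug dose plus five library-drug doses (not always all listed) in √10 steps, and values are duplicate-plate medians.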

BGJ398 + Pictilisib = compound: CCN1CCN(c2ccc(Nc3cc(N(C)C(=O)Nc4c(Cl)c(OC)cc(OC)c4Cl)ncn3)cc2)CC1 [BGJ398] + CS(=O)(=O)N1CCN(Cc2cc3nc(-c4cccc5[nH]ncc45)nc(N4CCOCC4)c3s2)CC1 [Pictilisib] (partner 1 µM)
Procedure, shortened: as §1

[2] = compound: C1=CC2=NC=CN=C2C=C1/C=C/3\C(=O)NC(=O)S3 + C[C@@H](Oc1cc(-c2cnn(C3CCNCC3)c2)cnc1N)c1c(Cl)ccc(F)c1Cl [Crizotinib] (partner 1 µM)
Procedure, shortened: as §1

[3] = compound: C1=CC2=NC=CN=C2C=C1/C=C/3\C(=O)NC(=O)S3 + COc1cc2c(Oc3ccc(NC(=O)C4(C(=O)Nc5ccc(F)cc5)CC4)cc3F)ccnc2cc1OCCCN1CCOCC1 [Foretinib] (partner 0.25 µM)
Procedure, shortened: as §1

Cell Line	relative viability ([1]; first compound 0.02 µM)	relative viability ([1]; first compound 0.06325 µM)	relative viability ([1]; first compound 0.2 µM)	relative viability ([1]; first compound 0.6325 µM)	relative viability ([1]; first compound 2 µM)	relative viability (BGJ398 + Pictilisib; first compound 0.01 µM)	relative viability (BGJ398 + Pictilisib; first compound 0.03162 µM)	relative viability (BGJ398 + Pictilisib; first compound 0.1 µM)	relative viability (BGJ398 + Pictilisib; first compound 0.3162 µM)	relative viability (BGJ398 + Pictilisib; first compound 1 µM)	relative viability ([2]; first compound 0.02 µM)	relative viability ([2]; first compound 0.06325 µM)	relative viability ([2]; first compound 0.2 µM)	relative viability ([2]; first compound 0.6325 µM)	relative viability ([2]; first compound 2 µM)	relative viability ([3]; first compound 0.06325 µM)	relative viability ([3]; first compound 0.2 µM)	relative viability ([3]; first compound 0.6325 µM)	relative viability ([3]; first compound 2 µM)	relative viability ([3]; first compound 0.02 µM)
EBC-1	0.88	1.22	0.922	0.953	0.925	0.41	0.414	0.357	0.515	0.451	0.17	0.217	0.21	0.178	0.171	0.105	0.0907	0.0919	0.11	–
NCI-H2347	1.01	0.957	0.957	0.993	0.92	0.615	0.964	0.591	0.593	0.918	0.679	0.645	0.672	0.717	0.916	0.77	0.948	0.86	0.634	0.843
NCI-H1993	0.712	0.797	0.751	0.795	0.713	0.744	0.766	0.722	0.82	0.685	0.914	1.03	0.806	0.848	0.668	0.817	0.72	0.748	0.578	0.694
NCI-H322M	1.06	0.85	0.982	0.896	0.918	0.511	0.415	0.508	0.432	0.515	0.858	0.778	1.1	0.823	0.943	0.918	0.932	0.906	0.669	0.969
NCI-H838	0.955	1.03	0.958	0.913	1	0.436	0.393	0.417	0.338	0.277	0.778	1.12	0.737	0.751	0.823	1.08	1	1.02	0.874	1.02
HARA	0.96	0.829	1.08	0.942	0.975	0.346	0.426	0.371	0.283	0.185	0.973	1.06	1.09	1.01	1.21	0.83	0.888	0.841	1.02	0.857
NCI-H2087	1.07	0.911	0.996	0.937	0.954	0.669	0.994	0.966	0.85	1.08	0.849	0.954	0.707	0.804	0.8	0.974	0.992	0.975	0.931	1.12
NCI-H1437	0.899	1.2	1.05	0.979	0.969	0.375	0.514	0.439	0.494	0.561	0.829	0.901	0.805	0.917	1.02	1.24	1.16	1.25	1.15	1.19
NCI-H650	1.13	0.922	1.17	0.832	0.731	0.87	0.943	0.867	0.858	0.868	0.805	0.707	0.627	0.714	0.652	1.09	1.04	1.08	0.711	1.01
COR-L23	0.874	0.89	0.978	0.861	0.951	0.691	0.826	0.788	0.808	0.87	0.65	0.649	0.576	0.582	0.699	0.961	0.96	0.934	0.979	0.94
COR-L 105	0.897	0.949	0.947	0.851	1.03	0.314	0.442	0.417	0.328	0.387	0.613	0.887	0.905	0.814	0.711	1.39	0.9	0.906	1.06	1
LK-2	0.68	0.523	0.69	0.644	0.516	0.555	0.529	0.326	0.235	0.245	0.311	0.252	0.236	0.22	0.235	1.16	1.26	1.03	0.789	1.06
201T	0.807	1.07	0.997	0.949	1.01	0.804	0.659	0.641	0.652	0.559	0.995	1.07	1.06	0.994	1.06	0.977	1.12	1.06	0.758	0.866
NCI-H596	1.01	0.994	1.11	0.975	1.07	0.367	0.416	0.355	0.389	0.321	0.976	0.87	1.06	0.989	1	0.863	1.05	0.742	0.899	0.856
H3255	0.81	0.968	0.967	0.897	0.96	0.484	0.138	0.462	0.344	0.506	0.851	0.929	0.746	0.916	0.886	0.968	0.881	0.899	0.965	0.786
NCI-H647	1.13	1.51	1.41	1.1	1.08	0.406	0.511	0.38	0.401	0.29	0.989	1.77	1.19	1.03	1	1.39	1.17	1.11	1.21	1.1
NCI-H2023	0.626	0.787	0.611	0.568	0.632	0.226	0.219	0.173	0.244	0.16	0.707	0.693	0.608	0.61	0.613	0.832	0.765	0.781	0.51	0.714
NCI-H23	0.575	0.649	0.717	0.588	0.603	0.545	0.487	0.477	0.461	0.411	0.49	0.629	0.498	0.555	0.351	0.976	1.02	0.902	0.856	1.12
NCI-H1944	1.18	1.22	1.22	0.944	1.12	0.36	0.348	0.323	0.333	0.311	1.07	1.06	1.01	0.993	1.1	0.78	0.885	0.795	0.903	0.814
NCI-H520	0.931	1.15	1.11	0.969	1.03	0.239	0.257	0.209	0.169	0.194	0.721	1.01	0.713	0.785	0.756	0.719	0.846	0.674	0.648	0.71
A549	0.648	0.682	0.627	0.546	0.6	0.486	0.475	0.453	0.535	0.596	0.791	0.901	0.782	0.671	0.646	1.05	0.889	0.835	0.984	0.965
NCI-H460	0.718	1.32	0.787	0.687	0.872	0.343	0.435	0.393	0.408	0.343	0.783	1.22	0.959	0.831	0.853	0.833	1.03	0.953	1	0.936
EKVX	0.772	0.845	0.983	0.981	0.945	0.437	0.395	0.479	0.406	0.46	0.933	0.905	0.975	0.833	0.898	0.602	0.773	0.541	0.746	0.753
NCI-H358	0.776	0.764	0.754	0.647	0.74	0.305	0.403	0.358	0.315	0.332	0.732	0.568	0.561	0.551	0.573	0.648	0.672	0.613	0.445	0.875
EPLC-272H	1.09	1.25	1.25	1.1	1.26	0.323	0.296	0.255	0.255	0.18	1.12	1.09	1.12	0.782	1.13	0.693	0.696	0.664	0.611	0.846
NCI-H1563	1.19	1.23	1.12	1.1	1.3	0.66	0.612	0.512	0.479	0.475	0.842	0.898	0.86	0.861	0.831	0.979	0.914	0.895	0.943	0.901
NCI-H2126	0.682	0.773	0.715	0.688	0.685	0.528	0.461	0.52	0.495	0.418	0.995	1.11	0.97	0.974	0.957	0.987	1.2	1.11	0.745	0.917
